Regarding `C=C(CC)CCC` [2-ethyl-1-pentene], the flash point was -10 °C.
With `CCc1ccccc1N` [2-ethylaniline] the figure was 85 °C.
Next, `CCC(C=O)CC` [2-ethylbutanal]: 21 °C.
On to `CCC1CCCCCC1=O` (stereo not drawn) [2-ethylcycloheptanone], for which the flash point is 71 °C.
Compound `CCc1ccco1` [2-ethylfuran] came in with a flash point of -2 °C.
Next, `CCCCC(C=O)CC` (stereo not drawn) [2-ethylhexanal]: 46 °C; `C=CC(=O)OCC(CC)CCCC` (stereo not drawn) [2-ethylhexylacrylate]: 86 °C.
Next, `CCc1cccs1` [2-ethylthiophene]: 21 °C; `CCCCCC(C)=O` [2-heptanone]: 39 °C; `CCCCC(C)O` (stereo not drawn) [2-hexanol]: 46 °C.
In turn, `CCCC(C)I` (stereo not drawn) [2-iodopentane] gave a flash point of 45 °C.
`CC(C)COCCO` [2-isobutoxyethanol] yielded a flash point of 51 °C.
In turn, `CC(C)OCCO` [2-isopropoxyethanol] returned a flash point of 43 °C.
Compound `OCCS` [2-mercaptoethanol] displayed a flash point of 68 °C.
With `CCC(C)OC` (stereo not drawn) [2-methoxybutane] the figure was -29 °C.
As for `CCC(C)CS` (stereo not drawn) [2-methyl-1-butanethiol], the flash point stood at 19 °C.
Next, `CCC(C)CO` (stereo not drawn) [2-methyl-1-butanol]: 43 °C; `C=C(C)CC` [2-methyl-1-butene]: -47 °C.
In turn, `C=C(C)CCC` [2-methyl-1-pentene] displayed a flash point of -27 °C.
`CC(C)CO` [2-methyl-1-propanol] had a flash point of 28 °C.
Next, `CCC(C)(C)O` [2-methyl-2-butanol]: 21 °C; `CC=C(C)C` [2-methyl-2-butene]: -45 °C.
With `CCCCC=C(C)C` [2-methyl-2-heptene], the flash point was 9 °C.
Next, `CCCC(C)(C)S` [2-methyl-2-pentanethiol]: 20 °C; `CCC(O)C(C)C` (stereo not drawn) [2-methyl-3-pentanol]: 46 °C; `CCCCCCCCC(C)C` [2-methyldecane]: 50 °C.
The compound `CCCCCCCCCCC(C)C` [2-methyldodecane] displayed a flash point of 71 °C.
Next, `CCCCC(C)C(=O)O` (stereo not drawn) [2-methylhexanoicacid]: 105 °C.
Next, `CCCCCCC(C)C` [2-methyloctane]: 24 °C; `CCCCCCCCCC(C)C` [2-methylundecane]: 61 °C.
For `CC(C)[N+](=O)[O-]` [2-nitropropane], the flash point worked out at 28 °C.
`CCCCCCCC(C)=O` [2-nonanone] yielded a flash point of 68 °C.
Next, `CCCCCCC(C)O` (stereo not drawn) [2-octanol]: 72 °C.
Compound `CCCCCC1CCCC1=O` (stereo not drawn) [2-pentylcyclopentanone] returned a flash point of 78 °C.
With `CCC(C)(C)c1ccccc1` [2-phenyl-2-methylbutane] the figure was 59 °C.
Next, `CCCc1ccco1` [2-propylfuran]: 15 °C; `CCCc1ccccc1O` [2-propylphenol]: 93 °C; `CCC(C)c1ccccc1O` (stereo not drawn) [2-sec-butylphenol]: 107 °C.
As to `CCCCCCCCCC(C)=O` [2-undecanone], the flash point is 89 °C.
`CCC(C)(C)C(C)(C)CC` [3,3,4,4-tetramethylhexane] returned a flash point of 31 °C.
Next, `CC1(C)CC(=O)CC(C)(C)C1` [3,3,5,5-tetramethylcyclohexanone]: 73 °C; `CCC(C)CC(C)(C)CC` (stereo not drawn) [3,3,5-trimethylheptane]: 31 °C; `CCC(CC)(CC)CC` [3,3-diethylpentane]: 21 °C.
Compound `C#CC(C)(C)C` [3,3-dimethyl-1-butyne] returned a flash point of -34 °C.
`CC(C)(C)CC(=O)O` [3,3-dimethylbutanoicacid] came in with a flash point of 88 °C.
Next, `CCCC(C)(C)CC` [3,3-dimethylhexane]: -1 °C; `CCCCCC(C)(C)CC` [3,3-dimethyloctane]: 41 °C; `CCC(C)(C)CC` [3,3-dimethylpentane]: -19 °C.
With `CCC(C)C(C)C(C)CC` (stereo not drawn) [3,4,5-trimethylheptane] the figure was 31 °C; with `CCC(C)C(C)CC` (stereo not drawn) [3,4-dimethylhexane], 6 °C; with `CCC(C)CC(C)CC` (stereo not drawn) [3,5-dimethylheptane], 15 °C.
For the compound `CCCC(C)CC(C)CC` (stereo not drawn) [3,5-dimethyloctane], the flash point was 41 °C.
With `C=CCC#N` [3-butenenitrile] the figure was 21 °C.
Next, `SCCCCl` [3-chloro-1-propanethiol]: 43 °C; `Cc1cccc(Cl)c1` [3-chlorotoluene]: 50 °C; `CCCCCCCC(O)CC` (stereo not drawn) [3-decanol]: 99 °C.
Turning to `CCC#CCCCCCC` [3-decyne], the flash point was 52 °C.
Next, `C=CC(CC)CCC` (stereo not drawn) [3-ethyl-1-hexene]: 1 °C; `C=CC(CC)CC` [3-ethyl-1-pentene]: -17 °C.
For the compound `CCCC(CC)C(C)(C)C` (stereo not drawn) [3-ethyl-2,2-dimethylhexane], the flash point was 38 °C.
Regarding `CCC(C)(C(C)C)C(C)C` [3-ethyl-2,3,4-trimethylpentane], the flash point was 31 °C.
`CCC(C)(CC)C(C)C` [3-ethyl-2,3-dimethylpentane] had a flash point of 15 °C.
`CCC(C)(CC)CC` [3-ethyl-3-methylpentane] showed a flash point of 3 °C.
Take `CCC(S)(CC)CC` [3-ethyl-3-pentanethiol]: the flash point was determined as 34 °C.
Next, `CCC(C)C(CC)CC` (stereo not drawn) [3-ethyl-4-methylhexane]: 15 °C; `CCc1cccc(N)c1` [3-ethylaniline]: 85 °C; `CCC1CCC(=O)C1` (stereo not drawn) [3-ethylcyclopentanone]: 46 °C.
With `CCC(CC)CC` [3-ethylpentane] the figure was -12 °C; with `CCCCC(O)CC` (stereo not drawn) [3-heptanol], 55 °C; with `CCC#CCCC` [3-heptyne], 5 °C.
Regarding `CCCC(S)CC` (stereo not drawn) [3-hexanethiol], the flash point is 30 °C.
With `CCCC(O)CC` (stereo not drawn) [3-hexanol] the figure was 45 °C; with `CCCC(=O)CC` [3-hexanone], 23 °C.
With `CC(C)CCO` [3-methyl-1-butanol] the figure was 43 °C.
Compound `CCC(C)CCO` (stereo not drawn) [3-methyl-1-pentanol] registered a flash point of 58 °C.
Next, `CC(=O)C(C)C` [3-methyl-2-butanone]: -1 °C; `CCC(C)C(C)O` (stereo not drawn) [3-methyl-2-pentanol]: 41 °C; `CCC(C)C(C)=O` (stereo not drawn) [3-methyl-2-pentanone]: 12 °C.

These data come from a flash point compilation (Sun et al. 2020).
